Common to all, as to assay type: physicochemical
Data set [1] is described as follows: Solubility of peptides in water.
Data set [2] in a line: Secondary structure estimation from circular dichroism in TFE, least square linear method. The conditions noted are these: TFE at 25° C., 1 wt.%. Here is the method: Circular Dichroism (CD) spectroscopy. For secondary structure characterization, peptide solutions of 1% by weight (molar concentration is included in Table 2) were prepared in 2,2,2-trifluoroethanol (TFE, Sigma Aldrich, St. Louis, MO). CD spectra acquisition was performed in a CD Jasco J-810 spectropolarimeter (Jasco Inc., Easton, MD) using a 0.01 mm cuvette. Data were collected at room temperature from 180 to 250 nm at a speed of 50 nm/min, with a 0.1 nm data pitch and the spectra were averaged over 5 scans. To study the hydrogelation of O5, 1% by weight peptide solutions were made in 149 mM sucrose solution in 0.5× Hank's Balanced Salt Solution (HBSS, Life Technologies) and analyzed as previously described.
To estimate the secondary structure of O peptide series, data fitting using the least square linear method was performed in MATLAB (Mathworks, Natick, MA). (Hyp)6, O1(SL)6O1 and K2(SL)6K2 were used as basis spectra for polyproline type II, β-sheet and α-helix, respectively (FIG. 7).

Data set [3] is described as follows: Hydrogel formation (inverted-vial test, pH, ionic strength, buffers). The following applies: for hydrogel formation at acidic, neutral and basic pH: 1% by weight, pH adjusted with HCl or NaOH, inverted-vial test / CD. Here is the method:
Hydrogel Formation. Peptide solutions of O5 were prepared at 1% by weight (4.2 mM) in 149 mM sucrose and 0.5×HBSS. This buffer system was chosen to be consistent with prior MDP experiments and find optimum gelling conditions for future in vivo and in vitro work. Peptide solutions were sonicated using a Microson Ultrasonic Cell Disruptor with a 2 mm microprobe. The instrument frequency was 22.5 kHz and a power output up to 10 watts (RMS) was used. Solutions were sonicated at room temperature for 1 or 10 cycles, where each cycle consisted of 10 pulses and 1 min relaxation time between cycles. For the study of hydrogelation of O5, K2 and E2 at different pH values and ionic strength, 1% by weight peptide solutions were prepared in deionized water, PBS, or HBSS. pH was adjusted using HCl or NaOH 0.1 M solutions.

“Also recorded” adds a separate entry of the source. Where a SMILES comes first, the peptide text is derived from it. [ ]: non-standard residue; d: D form. Hyp = O=C(O)[C@@H]1C[C@@H](O)CN1

`CC(=O)N1C[C@H](O)C[C@H]1C(=O)N[C@@H](CO)C(=O)N[C@@H](CC(C)C)C(=O)N[C@@H](CO)C(=O)N[C@@H](CC(C)C)C(=O)N[C@@H](CO)C(=O)N[C@@H](CC(C)C)C(=O)N[C@@H](CO)C(=O)N[C@@H](CC(C)C)C(=O)N[C@@H](CO)C(=O)N[C@@H](CC(C)C)C(=O)N[C@@H](CO)C(=O)N[C@@H](CC(C)C)C(=O)N1C[C@H](O)C[C@H]1C(N)=O` [Peptide O1, Ac-OSLSLSLSLSLSLO-CONH2] (Ac-[Hyp]SLSLSLSLSLSL[Hyp]-NH2): in data set [1], the solubility (in general, how much of the substance goes into solution per volume) was < 500 µg/mL. For the same compound, in data set [2], the “% PPII” value is 0%, the “% α-helix” value is 0%, the “% β-sheet” value is given as 100% and the “Predominant Structure” value is recorded as “β-sheet”.

Turning to `CC(=O)N1C[C@H](O)C[C@H]1C(=O)N1C[C@H](O)C[C@H]1C(=O)N[C@@H](CO)C(=O)N[C@@H](CC(C)C)C(=O)N[C@@H](CO)C(=O)N[C@@H](CC(C)C)C(=O)N[C@@H](CO)C(=O)N[C@@H](CC(C)C)C(=O)N[C@@H](CO)C(=O)N[C@@H](CC(C)C)C(=O)N[C@@H](CO)C(=O)N[C@@H](CC(C)C)C(=O)N[C@@H](CO)C(=O)N[C@@H](CC(C)C)C(=O)N1C[C@H](O)C[C@H]1C(=O)N1C[C@H](O)C[C@H]1C(N)=O` [Peptide O2, Ac-OOSLSLSLSLSLSLOO-CONH2] (Ac-[Hyp][Hyp]SLSLSLSLSLSL[Hyp][Hyp]-NH2), the solubility in data set [1] is < 500 µg/mL. Moreover, in data set [2], the “% PPII” value is given as 29.3%, the “% α-helix” value is 41.9%, the “% β-sheet” value is 28.8% and the “Predominant Structure” value is “α-helix”.

For the compound `CC(=O)N1C[C@H](O)C[C@H]1C(=O)N1C[C@H](O)C[C@H]1C(=O)N1C[C@H](O)C[C@H]1C(=O)N[C@@H](CO)C(=O)N[C@@H](CC(C)C)C(=O)N[C@@H](CO)C(=O)N[C@@H](CC(C)C)C(=O)N[C@@H](CO)C(=O)N[C@@H](CC(C)C)C(=O)N[C@@H](CO)C(=O)N[C@@H](CC(C)C)C(=O)N[C@@H](CO)C(=O)N[C@@H](CC(C)C)C(=O)N[C@@H](CO)C(=O)N[C@@H](CC(C)C)C(=O)N1C[C@H](O)C[C@H]1C(=O)N1C[C@H](O)C[C@H]1C(=O)N1C[C@H](O)C[C@H]1C(N)=O` [Peptide O3, Ac-OOOSLSLSLSLSLSLOOO-CONH2] (Ac-[Hyp][Hyp][Hyp]SLSLSLSLSLSL[Hyp][Hyp][Hyp]-NH2), in data set [1], the solubility is < 500 µg/mL. In data set [2], the “% PPII” value is reported as 38.4%, the “% α-helix” value is 36.4%, the “% β-sheet” value is recorded as 25.2% and the “Predominant Structure” value is listed as “PPII/α-helix”.

For `CC(=O)N1C[C@H](O)C[C@H]1C(=O)N1C[C@H](O)C[C@H]1C(=O)N1C[C@H](O)C[C@H]1C(=O)N1C[C@H](O)C[C@H]1C(=O)N[C@@H](CO)C(=O)N[C@@H](CC(C)C)C(=O)N[C@@H](CO)C(=O)N[C@@H](CC(C)C)C(=O)N[C@@H](CO)C(=O)N[C@@H](CC(C)C)C(=O)N[C@@H](CO)C(=O)N[C@@H](CC(C)C)C(=O)N[C@@H](CO)C(=O)N[C@@H](CC(C)C)C(=O)N[C@@H](CO)C(=O)N[C@@H](CC(C)C)C(=O)N1C[C@H](O)C[C@H]1C(=O)N1C[C@H](O)C[C@H]1C(=O)N1C[C@H](O)C[C@H]1C(=O)N1C[C@H](O)C[C@H]1C(N)=O` [Peptide O4, Ac-OOOOSLSLSLSLSLSLOOOO-CONH2] (Ac-[Hyp][Hyp][Hyp][Hyp]SLSLSLSLSLSL[Hyp][Hyp][Hyp][Hyp]-NH2), the solubility in data set [1] is < 500 µg/mL. For the same compound, in data set [2], the “% PPII” value was 41.8%, the “% α-helix” value is on record as 41.2%, the “% β-sheet” value was 17% and the “Predominant Structure” value was “PPII/α-helix”.

For `CC(=O)N1C[C@H](O)C[C@H]1C(=O)N1C[C@H](O)C[C@H]1C(=O)N1C[C@H](O)C[C@H]1C(=O)N1C[C@H](O)C[C@H]1C(=O)N1C[C@H](O)C[C@H]1C(=O)N1C[C@H](O)C[C@H]1C(=O)N[C@@H](CO)C(=O)N[C@@H](CC(C)C)C(=O)N[C@@H](CO)C(=O)N[C@@H](CC(C)C)C(=O)N[C@@H](CO)C(=O)N[C@@H](CC(C)C)C(=O)N[C@@H](CO)C(=O)N[C@@H](CC(C)C)C(=O)N[C@@H](CO)C(=O)N[C@@H](CC(C)C)C(=O)N[C@@H](CO)C(=O)N[C@@H](CC(C)C)C(=O)N1C[C@H](O)C[C@H]1C(=O)N1C[C@H](O)C[C@H]1C(=O)N1C[C@H](O)C[C@H]1C(=O)N1C[C@H](O)C[C@H]1C(=O)N1C[C@H](O)C[C@H]1C(=O)N1C[C@H](O)C[C@H]1C(N)=O` [Peptide O6, Ac-OOOOOOSLSLSLSLSLSLOOOOOO-CONH2] (Ac-[Hyp][Hyp][Hyp][Hyp][Hyp][Hyp]SLSLSLSLSLSL[Hyp][Hyp][Hyp][Hyp][Hyp][Hyp]-NH2), the “state of the peptide at 10 mg/mL” value in data set [3] (10 mg/mL) is “viscous solution”. In addition, the “hydrogelation in cell culture media” value in data set [3] (1% by weight in 149 mM sucrose and 0.5×HBSS, ultrasonication) is “dissolves to form a viscous solution”. For the same compound, in data set [2], the “% PPII” value is reported as 48.5%, the “% α-helix” value is 40.2%, the “% β-sheet” value is 11.4% and the “Predominant Structure” value is recorded as “PPII”.

Regarding “Ac-EESLSLSLSLSLSLEE-NH2 [Peptide E2, Ac-EESLSLSLSLSLSLEE-CONH2, reference compound]”, the “hydrogel formation at acidic, neutral and basic pH” value is “dependent on pH; also recorded: forms a gel at acidic pH and undergoes phase separation” in data set [3]; “gels only forming at neutral pH or at elevated ionic strength” in data set [3] (listed as E2(SL)6E2).

The values are drawn from US12383653B2, “Neutral multidomain peptide hydrogels and uses thereof” (William Marsh Rice University, priority 2018, dated 2025).
